SMILES strings stand for the structures.

For one assay, the target named is Adenosine receptor A2a (Rattus norvegicus, UniProt P30543). Briefly: Ability to displace [3H]-CGS- 21680 binding from adenosine A2A receptor.
Sequence of Adenosine receptor A2a (P30543 whole entry): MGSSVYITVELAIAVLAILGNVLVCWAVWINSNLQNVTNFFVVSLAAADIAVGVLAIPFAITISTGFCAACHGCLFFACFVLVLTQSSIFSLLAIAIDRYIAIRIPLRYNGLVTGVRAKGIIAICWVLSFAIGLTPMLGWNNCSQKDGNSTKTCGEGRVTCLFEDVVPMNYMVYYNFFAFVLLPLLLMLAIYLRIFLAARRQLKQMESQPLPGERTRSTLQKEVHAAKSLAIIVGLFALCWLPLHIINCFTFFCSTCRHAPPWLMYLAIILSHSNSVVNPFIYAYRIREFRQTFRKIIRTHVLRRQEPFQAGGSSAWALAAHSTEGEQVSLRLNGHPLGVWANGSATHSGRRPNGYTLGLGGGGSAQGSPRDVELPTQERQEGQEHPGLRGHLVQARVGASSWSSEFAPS
The Ki is the equilibrium dissociation constant of an inhibitor or competing ligand from its target. A higher Ki goes with lower affinity. The compound `CCOc1ccc(-c2oc3cc(OCC)cc(OCC)c3c(=O)c2OCC)c(OCC)c1` [2-(2,4-Diethoxy-phenyl)-3,5,7-triethoxy-chromen-4-one] returned a Ki of 26.3 µM. This counts as double-digit micromolar. On the same count and under the same terms, the figure for `CC(=O)Oc1cc(OC(C)=O)c2c(c1)OC(c1ccccc1)C(OC(C)=O)C2=O` (stereo unspecified) is 56.2 µM; for `CCOc1c2ccoc2cc2oc(/C=C/C=C/c3ccccc3)cc(=O)c12` [4-Ethoxy-7-((1E,3E)-4-phenyl-buta-1,3-dienyl)-furo[3,2-g]chromen-5-one] it is 166 µM; for `COc1c(O)cc2oc(-c3ccc(O)cc3)cc(=O)c2c1O` [5,7-dihydroxy-2-(4-hydroxyphenyl)-6-methoxy-4H-chromen-4-one] it is 7.59 µM. Still for that read-out and setting: the figure for `COc1ccc(-c2cc(=O)c3ccc(O)cc3o2)cc1OC` [2-(3,4-dimethoxyphenyl)-7-hydroxy-4H-chromen-4-one] is 34.7 µM; for `O=c1c(Cl)c(-c2ccccc2)oc2ccc(Cl)cc12` [NSC-74876] it is 55 µM.

`O=c1c(Cl)c(-c2ccccc2)oc2ccccc12` [3-Chloro-2-phenyl-chromen-4-one]: the Ki came to 25.1 µM. Against the preceding compound, the Ki is about 2.2-fold lower.

A further assay deals with T1, Adenosine receptor A1 (Rattus norvegicus, UniProt P25099).
T1 sequence (P25099 whole entry): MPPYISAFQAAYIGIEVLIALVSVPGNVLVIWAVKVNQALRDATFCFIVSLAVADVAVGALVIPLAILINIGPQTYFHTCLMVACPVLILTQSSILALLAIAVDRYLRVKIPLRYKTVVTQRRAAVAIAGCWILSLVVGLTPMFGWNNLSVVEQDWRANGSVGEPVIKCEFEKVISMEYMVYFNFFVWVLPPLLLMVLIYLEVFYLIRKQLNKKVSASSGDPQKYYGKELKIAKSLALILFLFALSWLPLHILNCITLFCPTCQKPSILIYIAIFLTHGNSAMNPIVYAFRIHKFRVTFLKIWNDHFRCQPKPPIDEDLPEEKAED
Kind of assay: Ability to displace [3H]N6-phenylisopropyladenosine binding from adenosine A1 receptor.
As to `COc1cc(O)c2c(c1)O[C@H](c1ccc(O)cc1)CC2=O` [5-hydroxy-2-(4-hydroxyphenyl)-7-methoxychroman-4-one], the Ki was found to be 8.13 µM.

On to `COc1ccc2c(c1)C(=O)C(O)C(C#Cc1ccccc1)O2` (stereo unspecified), for which the affinity corresponds to a Ki of 50.1 µM.

The target of a further assay is T2, Adenosine receptor A3 (Homo sapiens, UniProt P0DMS8).
T2 sequence (P0DMS8 whole entry): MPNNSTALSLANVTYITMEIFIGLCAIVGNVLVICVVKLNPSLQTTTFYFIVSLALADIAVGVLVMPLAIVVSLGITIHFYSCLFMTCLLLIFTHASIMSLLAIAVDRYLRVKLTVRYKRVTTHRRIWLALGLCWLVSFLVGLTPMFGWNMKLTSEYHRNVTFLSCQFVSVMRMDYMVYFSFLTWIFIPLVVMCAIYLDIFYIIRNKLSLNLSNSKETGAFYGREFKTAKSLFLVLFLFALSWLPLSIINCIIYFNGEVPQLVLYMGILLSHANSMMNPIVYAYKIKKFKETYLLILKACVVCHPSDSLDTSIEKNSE
Kind of assay: Ability to displace [125I]-AB-MECA binding from adenosine A3 receptor.
Take `COc1ccc(-c2cc(=O)c3c(O)cc(C)cc3o2)cc1` [5-Hydroxy-2-(4-methoxy-phenyl)-7-methyl-chromen-4-one]: the affinity corresponds to a Ki of 50.1 µM. In other words, the double-digit micromolar range.

`O=C1C[C@@H](c2ccc(O)cc2)Oc2ccccc21` [2-(4-hydroxyphenyl)-2,3-dihydro-4H-chromen-4-one] gave a Ki of 22.9 µM. Turning to `COc1cc(O)c2c(c1)O[C@H](c1ccc(O)cc1)CC2=O` [5-hydroxy-2-(4-hydroxyphenyl)-7-methoxychroman-4-one], the Ki was 3.39 µM. Against the preceding compound, the Ki is about 6.8-fold lower. With `Cc1ccc(-c2oc3ccc(Cl)cc3c(=O)c2Cl)c(C(C)C)c1` [NSC-74899], the Ki was determined as 0.562 µM. This Ki is about 6-fold lower than that of the compound before. Same read-out and setting: the value for `COc1cc(OC)c2c(=O)c(OC)c(-c3ccccc3)oc2c1` [3,5,7-Trimethoxy-2-phenyl-chromen-4-one] was 0.831 µM; that for `O=C1CC(c2ccccc2)Oc2ccccc21` (stereo unspecified) [2-phenyl-2,3-dihydro-4H-chromen-4-one] was 16.2 µM; that for `COc1cc(OC)c2c(=O)c(OC)c(-c3cc(OC)c(OC)c(OC)c3)oc2c1` [3,5,7-Trimethoxy-2-(3,4,5-trimethoxy-phenyl)-chromen-4-one] was 6.61 µM. Regarding `COc1ccc2c(c1)C(=O)C(O)C(C#Cc1ccccc1)O2` (stereo unspecified), the inhibitory constant (Ki) was 8.13 µM. The Ki values of the last two compounds are within 1.5-fold of each other.

As for `COC1(OC)Cc2oc(-c3ccc(O)cc3O)c(CC=C(C)C)c(=O)c2C(O)=C1/C=C/C(C)C`, the Ki was determined as 4.57 µM. The same measure, in the same setting: the value for `CCOc1c(-c2c(C)cc(C)cc2C)oc2ccc(Cl)cc2c1=O` was 0.191 µM. Still for that read-out and setting: the figure for `COc1cc2oc(-c3ccc(O)cc3)cc(=O)c2c(O)c1OC` [cirsimartin] is 3.16 µM; for `O=c1c(O)c(-c2ccccc2)oc2cc(O)cc(O)c12` [norizalpinin] it is 0.589 µM.
